From the NIST ThermoML archive (doi:10.1016/j.jct.2018.03.017) come the findings set out here.

Numbers after ± are expanded uncertainties.

For data set [1] the following is noted: 96 kPa, Liquid, Pycnometric method.
The nature of data set [2]: xn = mol fraction of the nth substance listed. The following applies: 96 kPa, Liquid, Pycnometric method, x2 = 0.

For orientation: mass density means mass per unit of volume. For `OCC(O)CO` [glycerol], the mass density in data set [1] (288.15 K) worked out at 1262.7 ± 8.2 kg/m3; in data set [1] (293.15 K), 1260.5 ± 8.2 kg/m3; in data set [1] (298.15 K), 1257.2 ± 8.2 kg/m3; in data set [1] (303.15 K), 1254.8 ± 8.2 kg/m3; in data set [1] (308.15 K), 1251.5 ± 8.2 kg/m3; in data set [1] (313.15 K), 1248.9 ± 8.2 kg/m3. The mass density was 1246 ± 8.2 kg/m3 in data set [1] (318.15 K), 1242.4 ± 8.2 kg/m3 in data set [1] (323.15 K) and 1240.5 ± 8.2 kg/m3 in data set [1] (328.15 K).
On to `OCC(O)CO` [glycerol] + C1CCC2=NCCCN2CC1, for which the mass density in data set [2] (288.15 K) came to 1262.7 ± 8.2 kg/m3; in data set [2] (293.15 K) it was 1260.5 ± 8.2 kg/m3; in data set [2] (298.15 K) it was 1257.2 ± 8.2 kg/m3; in data set [2] (303.15 K) it was 1254.8 ± 8.2 kg/m3; in data set [2] (308.15 K), 1251.5 ± 8.2 kg/m3; in data set [2] (313.15 K) it was 1248.9 ± 8.2 kg/m3. Moreover, the mass density was found to be 1246 ± 8.2 kg/m3 in data set [2] (318.15 K), 1242.4 ± 8.2 kg/m3 in data set [2] (323.15 K) and 1240.5 ± 8.2 kg/m3 in data set [2] (328.15 K).
For the molecule `C1CCC2=NCCCN2CC1` [1,8-diaza-7-bicyclo[5.4.0]undecene], the mass density in data set [1] (288.15 K) came out at 1020.6 ± 8.2 kg/m3; in data set [1] (293.15 K) it was 1017.1 ± 8.2 kg/m3; in data set [1] (298.15 K), 1014.1 ± 8.2 kg/m3; in data set [1] (303.15 K), 1010.9 ± 8.2 kg/m3; in data set [1] (308.15 K), 1007.4 ± 8.2 kg/m3; in data set [1] (313.15 K) it was 1004.6 ± 8.2 kg/m3. For the same molecule, the mass density in data set [1] (318.15 K) is recorded as 1000.8 ± 8.2 kg/m3; in data set [1] (323.15 K), 998.4 ± 8.2 kg/m3; in data set [1] (328.15 K) it was 994.2 ± 8.2 kg/m3.
